Data as given in publication PMC4472604 (ACS chemical neuroscience, 2015).

Tests used:
DOR [1] = target: T1, DOR (Mus musculus, UniProt P32300); assay: Competition binding against [125I]-3
KOR = KOR (Mus musculus, UniProt P33534); assay: Competition binding against [125I]BNtxA in KOR-CHO membranes
MOR = MOR (Mus musculus, UniProt P42866); assay: Competition binding against [125I]BNtxA in MOR-CHO membranes
6TM/E11 sites = 6TM/E11 sites (Mus musculus, UniProt P42866); format: binding
DOR [2] = target: T1, DOR; assay: [125I]-3 saturation binding in DOR-CHO membranes; settings: mean ± SEM

Oc1ccc2c3c1O[C@H]1c4oc5ccccc5c4C[C@@]4(O)[C@@H](C2)N(CC2CC2)CC[C@]314 [Naltriben]
Ki (DOR [1]): 0.14 ± 0.04 nM

Oc1ccc2c3c1O[C@H]1c4[nH]c5ccccc5c4C[C@@]4(O)[C@@H](C2)N(CC2CC2)CC[C@]314 [Naltrindole]
Ki (DOR [1]): 0.79 ± 0.16 nM

CC(C)[C@H](NC(=O)[C@H](CCC(=O)O)NC(=O)[C@H](Cc1ccccc1)NC(=O)[C@@H](C)NC(=O)[C@@H](N)Cc1ccc(O)cc1)C(=O)N[C@H](C(=O)NCC(N)=O)C(C)C [[D-Ala^2]deltorphin II, Tyr-D-Ala-Phe-Glu-Val-Val-Gly-NH2]
Ki (KOR): > 1000 nM
Ki (MOR): > 1000 nM
Ki (6TM/E11 sites): > 1000 nM

Tyr-D-Ala-(p-^125I)Phe-Glu-Ile-Ile-Gly-NH2 [[^125I]-3]
Bmax (DOR [2]): 196.97 ± 12.44 fmol/mg
